According to the NIST ThermoML archive (doi:10.1016/j.jct.2017.12.022):
Numbers after ± are expanded uncertainties.

How the values were obtained:
[1] = Crystal; DTA
[2] = Molar enthalpy of transition or fusion; details: Crystal; DSC

- Normal melting temperature [1]: 140.8 ± 1 °C
- Molar enthalpy of transition or fusion [2]: 8.48 ± 0.191 kcal/mol
SMILES: COC(=O)c1ccc(C(=O)OC)cc1 [dimethyl 1,4-benzenedicarboxylate]
